{"source": "patent US9085593B2", "about": "“Therapeutic agent for arthrosis” (SANSHO CO., LTD., priority 2011, dated 2015)", "tested_on": "osteoarthritis in rabbit knee", "experiment": "Histopathological evaluation of femur and tibia condyles, rabbit knee osteoarthritis model", "type": "in vivo, rabbits (Kbs:NZW)", "set-up": "key to Fibrillation and/or fissure / Lowered proteoglycan stainability / Disorganization of chondrocytes / Loss of chondrocytes / Exposure of subchondral bone / Cluster formation / Histopathological score / Loss of superficial layer / Cartilage erosion: 0: None; 1: slight; 2: mild; 3: moderate; 4: severe; key to Disorganization of chondrocytes, Mean / Loss of chondrocytes, Mean / Exposure of subchondral bone, Mean / Cluster formation, Mean / Cartilage erosion, Mean: grade 0 to +4 per item; key to Histopathological score, Mean: sum of 8 items each graded 0 to +4", "details": "for Cluster formation / Disorganization of chondrocytes / Exposure of subchondral bone / Fibrillation and/or fissure / Loss of chondrocytes / Lowered proteoglycan stainability / Cartilage erosion / Loss of superficial layer / Histopathological score / Cartilage erosion, Mean / Cluster formation, Mean / Disorganization of chondrocytes, Mean / Exposure of subchondral bone, Mean / Fibrillation and/or fissure, Mean / Loss of chondrocytes, Mean / Loss of superficial layer, Mean / Lowered proteoglycan stainability, Mean / Histopathological score, Mean: day 42; for Cluster formation / Disorganization of chondrocytes / Exposure of subchondral bone / Fibrillation and/or fissure / Loss of chondrocytes / Lowered proteoglycan stainability / Cartilage erosion / Loss of superficial layer / Histopathological score: individual animals 201-206; for Cluster formation / Disorganization of chondrocytes / Exposure of subchondral bone / Fibrillation and/or fissure / Loss of chondrocytes / Lowered proteoglycan stainability / Cartilage erosion / Loss of superficial layer: grade 0-4; for Histopathological score: sum of all items; for Cartilage erosion, Mean / Cluster formation, Mean / Disorganization of chondrocytes, Mean / Exposure of subchondral bone, Mean / Fibrillation and/or fissure, Mean / Loss of chondrocytes, Mean / Loss of superficial layer, Mean / Lowered proteoglycan stainability, Mean / Histopathological score, Mean: group mean n=6", "protocol": "Twelve 11- to 12-week-old male rabbits (Kbs:NZW) were used. Rabbits were reared in separate cages (one rabbit per cage) at 14.4° C. to 24.9° C. under light (12 hours from 7:00 am to 7:00 pm) with continuous ventilation. Rabbits were allowed to eat 150 g of feed (CR-3, CLEA Japan, Inc.) per day and to drink tap water.\n(9Z)-9-Octadecenoic acid-(2-hydroxy-2-oxide-1,2-oxaphospholan-4-yl)methyl ester sodium salt (C18:1-cPA; hereafter, referred to as “ScPA”) was used.\nHair in the vicinity of the knee joint of the right hind limb of a rabbit was shaved using electrical clippers under deep anesthesia, and the shaved area was disinfected with Isodine. The outer coat on the medial aspect of the right hind limb was incised with a surgical knife, the boundary between the medial aspect and the articular capsule of the patellofemoral ligament was further incised, and the medial patellofemoral ligament was then dissected. Thereafter, the articular capsule was spread wide open to expose the medial meniscus, which was then completely removed. Following the removal of the meniscus, tissue and epidermis in the vicinity of the articular capsule were sutured. At the time of suturing, the site of operation was washed with physiological saline (titer: 500 mg/20 ml) containing antibiotics (Viccillin, Meiji Seika Pharma Co., Ltd.).\nAfter the model animals were prepared, they were divided into two groups each consisting of 6 individuals while averaging body […] (i.e., the vehicle administered group of Animal Numbers 101 to 106 and the test substance (ScPA) administered group of Animal Numbers 201 to 206).\nThe test compound and the vehicle were administered in the manner described below. • Route of administration: into the joint cavity • Site of administration: right hind limb (treated limb) • Timing of administration: on days 7, 11, 14, 18, 21, 25, 28, 32, 35, and 39 • Dosage: Test compound: 10 μg/rabbit (volume: 0.2 ml) • Vehicle: 0.2 ml/rabbit • Means of administration: with the use of a 1.0-ml syringe (Terumo Corporation) and a 27 G injection needle (Terumo Corporation) (1-5) Pain Assessment (Weight Distribution Across both Hind Limbs) Frequency of Measurement:\nFour limbs were dissected from the animals under deep anesthesia, causing them to bleed to death. Thereafter, the femur condyle and the tibial condyle were removed from the knee joint of the treated limb (the right hind limb), followed by fixation in a 10% neutral buffered formalin solution.\nThe femur and the tibia that had been soaked and fixed in a 10% neutral buffered formalin solution were subjected to demineralization with EDTA. After the completion of demineralization, the colored sites identified below were embedded in paraffin in accordance with a conventional technique, and the resultant was sliced to a thickness of 4 μm each. The slices were subjected to hematoxylin-eosin (HE) staining and safranin O (proteoglycan) staining and histopathologically examined under an optical microscope (BX51TF; OLYMPUS). The degree of cartilage degeneration of the pathological specimens was evaluated in accordance with the criteria shown in Table 1 below (Kikuchi, T, Yoneda, H. et al., Osteoarthritis cartilage, 4; p. 99 and continuing pages, 1996). Specifically, the specimens were evaluated in terms of loss of the following 8 items according to a five-grade evaluation (0 to +4): superficial layer; cartilage erosion; fibrillation and/or fissure; lowered proteoglycan stainability (safranin O stainability); disorganization of chondrocytes; loss of chondrocytes; exposure of subchondral bone; and cluster formation. The sum total score of all items was defined as the overall score. Observation items without specific criteria defined in Table 1 were evaluated in accordance with the criteria shown in Table 2 below (Naoki Ishiguro et al., Journal of Surgery, 29: p. 112 and continuing pages, 2010).", "key": {"[1]": {"details": "lateral condyle of femur, listed as Test substance, sodium salt"}, "[2]": {"details": "lateral condyle of tibia, listed as Test substance, sodium salt"}, "[3]": {"details": "medial condyle of femur, listed as Test substance, sodium salt"}, "[4]": {"details": "medial condyle of the femur, of 6 samples"}, "[5]": {"details": "medial condyle of the tibia, of 6 samples"}, "[6]": {"details": "medial condyle of tibia, listed as Test substance, sodium salt"}}, "note": "Several values for one entry are separate records, joined by “and”; a condition that tells them apart may be missing. Equal entries are not always repeated.", "data": [{"smiles": "CCCCCCCC/C=C\\CCCCCCCC(=O)OCC1COP(=O)([O-])C1.[Na+]", "note": "(stereo not shown) [ScPA, (9Z)-9-Octadecenoic acid-(2-hydroxy-2-oxide-1,2-oxaphospholan-4-yl)methyl ester sodium salt]", "values": [{"measurement": "cartilage erosion in histopathological image (FIG. 12 B)", "setting": "Animal No. 201, medial aspect of the right femur, HE staining", "result": "slight"}, {"measurement": "joint cartilage change in histopathological image (FIG. 12 D)", "setting": "Animal No. 201, medial aspect of the right femur, SO staining", "result": "no change"}, {"measurement": "Cluster formation", "setting": "lateral condyle of femur", "result": 0}, {"measurement": "Disorganization of chondrocytes", "setting": "lateral condyle of femur", "result": 0}, {"measurement": "Exposure of subchondral bone", "setting": "lateral condyle of femur", "result": 0}, {"measurement": "Fibrillation and/or fissure", "setting": "lateral condyle of femur", "result": 0}, {"measurement": "Loss of chondrocytes", "setting": "lateral condyle of femur", "result": 0}, {"measurement": "Lowered proteoglycan stainability", "setting": "lateral condyle of femur", "result": 0}, {"measurement": "Cartilage erosion", "setting": "[1]", "result": "0 (4×) and 1 (2×)"}, {"measurement": "Loss of superficial layer", "setting": "[1]", "result": "0 (4×) and 1 (2×)"}, {"measurement": "Histopathological score", "setting": "[1]", "result": "0 (4×) and 2 (2×)"}, {"measurement": "Cartilage erosion", "setting": "lateral condyle of tibia", "result": 0}, {"measurement": "Cluster formation", "setting": "lateral condyle of tibia", "result": 0}, {"measurement": "Disorganization of chondrocytes", "setting": "lateral condyle of tibia", "result": 0}, {"measurement": "Exposure of subchondral bone", "setting": "lateral condyle of tibia", "result": 0}, {"measurement": "Fibrillation and/or fissure", "setting": "lateral condyle of tibia", "result": 0}, {"measurement": "Loss of chondrocytes", "setting": "lateral condyle of tibia", "result": 0}, {"measurement": "Loss of superficial layer", "setting": "lateral condyle of tibia", "result": 0}, {"measurement": "Lowered proteoglycan stainability", "setting": "[2]", "result": "0 (3×) and 1 (3×)"}, {"measurement": "Histopathological score", "setting": "[2]", "result": "0 (3×) and 1 (3×)"}, {"measurement": "damages resulting from the preparation of osteoarthritis models", "setting": "lateral condyles of the femur and of the tibia", "result": "substantially no damages"}, {"measurement": "Cartilage erosion, Mean", "setting": "medial condyle of femur", "result": 1.17}, {"measurement": "Cluster formation, Mean", "setting": "medial condyle of femur", "result": 2.17}, {"measurement": "Disorganization of chondrocytes, Mean", "setting": "medial condyle of femur", "result": 0.83}, {"measurement": "Exposure of subchondral bone, Mean", "setting": "medial condyle of femur", "result": 0.33}, {"measurement": "Fibrillation and/or fissure, Mean", "setting": "medial condyle of femur", "result": 0.67}, {"measurement": "Loss of chondrocytes, Mean", "setting": "medial condyle of femur", "result": 0.83}, {"measurement": "Loss of superficial layer, Mean", "setting": "medial condyle of femur", "result": 1.17}, {"measurement": "Lowered proteoglycan stainability, Mean", "setting": "medial condyle of femur", "result": 1.17}, {"measurement": "Histopathological score, Mean", "setting": "medial condyle of femur, p=0.0649 vs vehicle, listed as Test substance, sodium salt", "result": 8.33}, {"measurement": "Histopathological score, Mean", "setting": "medial condyle of femur, p=0.0649 vs vehicle, listed as test substance, sodium salt", "result": "8.33±2.51"}, {"measurement": "Cartilage erosion", "setting": "[3]", "result": "1 (4×) and 0 and 3"}, {"measurement": "Cluster formation", "setting": "[3]", "result": "2 (4×) and 4 and 1"}, {"measurement": "Disorganization of chondrocytes", "setting": "[3]", "result": "0 and 1 (5×)"}, {"measurement": "Exposure of subchondral bone", "setting": "[3]", "result": "0 (5×) and 2"}, {"measurement": "Fibrillation and/or fissure", "setting": "[3]", "result": "1 and 0 (4×) and 3"}, {"measurement": "Loss of chondrocytes", "setting": "[3]", "result": "0 (3×) and 1 (2×) and 3"}, {"measurement": "Loss of superficial layer", "setting": "[3]", "result": "1 (4×) and 0 and 3"}, {"measurement": "Lowered proteoglycan stainability", "setting": "[3]", "result": "1 (2×) and 2 and 0 (2×) and 3"}, {"measurement": "Histopathological score", "setting": "[3]", "result": "6 (2×) and 10 and 3 and 20 and 5"}, {"measurement": "Histopathological score", "setting": "medial condyle of femur, listed as test substance, sodium salt", "result": "6 (2×) and 5 and 10 and 3 and 20"}, {"measurement": "samples in which cartilage erosion was observed", "setting": "[4]", "result": 5}, {"measurement": "samples in which cluster formation was observed", "setting": "[4]", "result": 6}, {"measurement": "samples in which disorganization of chondrocytes was observed", "setting": "[4]", "result": 5}, {"measurement": "samples in which loss of cartilage superficial layer was observed", "setting": "[4]", "result": 5}, {"measurement": "samples with changes lesser than those observed in the vehicle administered group", "setting": "[4]", "result": 4}, {"measurement": "histopathological scores compared with the vehicle administered group", "setting": "medial condyle of the femur, p=0.0649", "result": "lower than those of the vehicle administered group"}, {"measurement": "samples in which cartilage fibrillation and/or fissure was observed", "setting": "[5]", "result": 6}, {"measurement": "samples in which loss of cartilage superficial layer was observed", "setting": "[5]", "result": 5}, {"measurement": "samples in which lowered proteoglycan stainability was observed", "setting": "[5]", "result": 5}, {"measurement": "Cartilage erosion, Mean", "setting": "medial condyle of tibia", "result": 1.17}, {"measurement": "Cluster formation, Mean", "setting": "medial condyle of tibia", "result": 1.50}, {"measurement": "Disorganization of chondrocytes, Mean", "setting": "medial condyle of tibia", "result": 1.33}, {"measurement": "Exposure of subchondral bone, Mean", "setting": "medial condyle of tibia", "result": 0.50}, {"measurement": "Fibrillation and/or fissure, Mean", "setting": "medial condyle of tibia", "result": 1.50}, {"measurement": "Loss of chondrocytes, Mean", "setting": "medial condyle of tibia", "result": 0.67}, {"measurement": "Loss of superficial layer, Mean", "setting": "medial condyle of tibia", "result": 2.00}, {"measurement": "Lowered proteoglycan stainability, Mean", "setting": "medial condyle of tibia", "result": 1.83}, {"measurement": "Histopathological score, Mean", "setting": "medial condyle of tibia, p=0.6991 vs vehicle, listed as Test substance, sodium salt", "result": 10.50}, {"measurement": "Histopathological score, Mean", "setting": "medial condyle of tibia, p=0.6991 vs vehicle, listed as test substance, sodium salt", "result": "10.50±3.91"}, {"measurement": "Cartilage erosion", "setting": "[6]", "result": "2 and 1 (2×) and 0 (2×) and 3"}, {"measurement": "Cluster formation", "setting": "[6]", "result": "4 and 1 (2×) and 0 (2×) and 3"}, {"measurement": "Disorganization of chondrocytes", "setting": "[6]", "result": "2 and 1 (2×) and 0 (2×) and 4"}, {"measurement": "Exposure of subchondral bone", "setting": "[6]", "result": "0 (5×) and 3"}, {"measurement": "Fibrillation and/or fissure", "setting": "[6]", "result": "1 (4×) and 3 and 2"}, {"measurement": "Loss of chondrocytes", "setting": "[6]", "result": "0 (4×) and 3 and 1"}, {"measurement": "Loss of superficial layer", "setting": "[6]", "result": "3 (2×) and 1 (2×) and 0 and 4"}, {"measurement": "Lowered proteoglycan stainability", "setting": "[6]", "result": "4 (2×) and 1 (3×) and 0"}, {"measurement": "Histopathological score", "setting": "[6]", "result": "16 and 6 and 1 and 27 and 9 and 4"}, {"measurement": "Histopathological score", "setting": "medial condyle of tibia, listed as test substance, sodium salt", "result": "4 and 16 and 6 and 1 and 27 and 9"}]}]}
